Here are results for one compound from article PMC3909768 (Journal of Cancer, 2014).

Series [1] deals with GABA receptors. Briefly: [3H]GABA binding, rat cerebral cortex membranes. Conditions: 10uM.
Series [2] is described as follows: Plasma protein binding by equilibrium dialysis, mouse. Format: in vitro ADME. Conditions: Mice plasma, 1 uM, equilibrium dialysis 4h 37C. Background: Equilibrium dialysis compares concentrations on both sides of a semipermeable membrane.
Series [3] can be described thus: Plasma protein binding by equilibrium dialysis, dog. Conditions: Dogs plasma, 1 uM, equilibrium dialysis 4h 37C. Type of series: in vitro ADME.
Series [4] in a line: Plasma protein binding by equilibrium dialysis, human. Format: in vitro ADME. Conditions: 1 uM, equilibrium dialysis 4h 37C.
Series [5] deals with spermatozoon in epididymis. Description: Concentration of spermatozoon in epididymis of rats, 60 days. Format: in vivo, male rats. To be noted: n=6.
Series [6] in a line: Dog pharmacokinetics. Format: in vivo, male beagle dogs. To be noted: multiple oral doses in dogs.
The target in series [7] is T1, CYP 1A2 (Homo sapiens, UniProt P05177).
T1 sequence (P05177 1-516): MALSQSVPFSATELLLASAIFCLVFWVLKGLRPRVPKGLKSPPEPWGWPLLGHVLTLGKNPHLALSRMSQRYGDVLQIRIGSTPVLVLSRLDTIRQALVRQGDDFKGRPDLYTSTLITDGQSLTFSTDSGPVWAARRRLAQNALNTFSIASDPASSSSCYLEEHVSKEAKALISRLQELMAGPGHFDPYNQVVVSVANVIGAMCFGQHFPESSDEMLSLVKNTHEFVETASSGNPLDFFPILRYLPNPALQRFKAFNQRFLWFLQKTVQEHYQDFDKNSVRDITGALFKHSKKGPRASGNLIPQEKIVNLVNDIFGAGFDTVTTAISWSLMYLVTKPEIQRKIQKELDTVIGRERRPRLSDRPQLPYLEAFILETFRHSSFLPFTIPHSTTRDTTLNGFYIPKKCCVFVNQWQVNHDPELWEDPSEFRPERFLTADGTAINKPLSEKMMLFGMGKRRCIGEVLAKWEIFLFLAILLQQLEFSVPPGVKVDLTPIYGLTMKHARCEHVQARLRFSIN
Description: CYP inhibition. Conditions: concentrations up to 10 uM. Type of series: in vitro ADME.

A short description of series [8]: Drug concentration in plasma and xenograft tumor after 21-day dosing. Conditions: male, CB17-SCID, mouse, in vivo.

Values joined by “and” are separate entries in the source; they are usually repeats but may differ in a detail not shown here. Equal entries are not always repeated.

In general, Kp refers to the ratio of the level in a tissue or fluid to that in plasma or blood. Consider `CNC(=O)c1ccc(N2C(=S)N(c3ccc(C#N)c(C(F)(F)F)c3)C(=O)[C@]23CCOC3)cc1F` [ONC1-13B, 4-[(R)-3-(4-Cyano-3-trifluoromethyl-phenyl)-4-oxo-2-thioxo-7-oxa-1,3-diaza-spiro[4.4]non-1-yl]-2-fluoro-N-methyl-benzamide], for which the “inhibition of [3H]GABA specific binding” value in series [1] worked out at 42%. Moreover, the results for the Bound fraction in series [2], in series [3] and in series [4] were 90.7%, 89.5% and 89.3%, respectively. For the same compound, the “Concentration of spermatozoon in epididymis, M±m” value in series [5] (30 mg/kg po) is 29,00 ± 2,73 х 10^6/ml; in series [5] (300 mg/kg po), 16,00 ± 2,37 х 10^6/ml. The compound also registered a steady-state reached after in series [6] of 10 administrations. In addition, the “inhibition of CYP 1A2 activity” value in series [7] is given as “doesn`t inhibit”. Besides, the Kp at 24 h in series [8] (20 mg/kg) stood at 0.78 ± 0.08; in series [8] (50 mg/kg) it was 0.77 ± 0.13. Moreover, the concentration at 24 h is 76.2 ng/mL and 52.6 ng/g in series [8] (20 mg/kg); 154 ng/mL and 138 ng/g in series [8] (50 mg/kg). This compound also registered a Kp at 16 h in series [8] (po, 20 mg/kg) of 0.72 ± 0.05. Besides, the concentration at 16 h in series [8] (po, 20 mg/kg) is 456 ng/mL and 442 ng/g.
